The test system of the data set is ddY-strain male mice. Put plainly: Acute Toxicity Test (minimum lethal dose, oral). Format: in vivo. The settings on record: seven days after administration. On the procedure:
Test compounds were orally administered to groups of ddY-strain male mice weighing 20±1 g, each group consisting of three mice. Seven days after the administration, minimum lethal dose (MLD) of each compound was determined by observing the mortality.

Results on 16 compounds are retold here after patent US5543415A, “Antidepressants” (Kyowa Hakko Kogyo Co., Ltd., priority 1992, dated 1996).

Regarding `CCCCOc1ccc(/C=C/c2nc3c([nH]2)c(=O)n(CCC)c(=O)n3CCC)cc1` [Compound 52, (E)-8-(4-Butoxystyryl)-1,3-dipropylxanthine], the “MLD (minimum lethal dose)” value was over 100 mg/kg.
The result for `CCCCOc1ccc(/C=C/c2nc3c(c(=O)n(CCC)c(=O)n3CCC)n2C)cc1` [Compound 53, (E)-8-(4-Butoxystyryl)-7-methyl-1,3-dipropylxanthine] reads over 300 mg/kg.
The same measure for `CCCn1c(=O)c2c(nc(/C=C/c3ccc(O)c(O)c3)n2C)n(CCC)c1=O` [Compound 54, (E)-8-(3,4-Dihydroxystyryl)-7-methyl-1,3-dipropylxanthine]: over 100 mg/kg; for `CCCn1c(=O)c2c(nc(/C=C/c3ccc(OCC)c(OCC)c3)n2C)n(CCC)c1=O` [Compound 55, (E)-8-(3,4-Diethoxystyryl)-7-methyl-1,3-dipropylxanthine]: over 100 mg/kg.
`CCCn1c(=O)c2[nH]c(/C=C/c3ccc(OC)c(Br)c3)nc2n(CCC)c1=O` [Compound 56, (E)-8-(3-Bromo-4-methoxystyryl)-1,3-dipropylxanthine]: the “MLD (minimum lethal dose)” value is reported as over 100 mg/kg.
The result for `CCCn1c(=O)c2c(nc(/C=C/c3ccc(OC)c(Br)c3)n2C)n(CCC)c1=O` [Compound 57, (E)-8-(3-Bromo-4-methoxystyryl)-7-methyl-1,3-dipropylxanthine] reads over 100 mg/kg.
With `CCCn1c(=O)c2[nH]c(/C=C/c3cc(OC)c(OC)cc3Br)nc2n(CCC)c1=O` [Compound 58, (E)-8-(2-Bromo-4,5-dimethoxystyryl)-1,3-dipropylxanthine], the “MLD (minimum lethal dose)” value is over 300 mg/kg.
For `CCCn1c(=O)c2c(nc(/C=C/c3cc(OC)c(OC)cc3Br)n2C)n(CCC)c1=O` [Compound 59, (E)-8-(2-Bromo-4,5-dimethoxystyryl)-7-methyl-1,3-dipropylxanthine], the “MLD (minimum lethal dose)” value is recorded as over 300 mg/kg.
With `CCCn1c(=O)c2[nH]c(/C=C/c3cc(Br)c(OC)c(OC)c3)nc2n(CCC)c1=O` [Compound 60, (E)-8-(3-Bromo-4,5-dimethoxystyryl)-1,3-dipropylxanthine], the “MLD (minimum lethal dose)” value is listed as over 300 mg/kg.
`CCCn1c(=O)c2c(nc(/C=C/c3cc(Br)c(OC)c(OC)c3)n2C)n(CCC)c1=O` [Compound 61, (E)-8-(3-Bromo-4,5-dimethoxystyryl)-7-methyl-1,3-dipropylxanthine]: the “MLD (minimum lethal dose)” value is reported as over 100 mg/kg.
The result for `CCCn1c(=O)c2[nH]c(/C=C/c3ccc(OC)c4ccccc34)nc2n(CCC)c1=O` [Compound 62, (E)-8-[2-(4-Methoxynaphthyl)vinyl]-1,3-dipropylxanthine] reads over 100 mg/kg; that for `CCCn1c(=O)c2c(nc(/C=C/c3ccc(OC)c4ccccc34)n2C)n(CCC)c1=O` [Compound 63, (E)-8-[2-(4-Methoxynaphthyl)vinyl]-7-methyl-1,3-dipropylxanthine], over 300 mg/kg.
The result for `CCCn1c(=O)c2c(nc(/C=C/c3ccc(OC)c(O)c3)n2C)n(CCC)c1=O` [Compound 64, (E)-8-(3-Hydroxy-4-methoxystyryl)-7-methyl-1,3-dipropylxanthine] reads over 100 mg/kg; that for `CCCn1c(=O)c2c(nc(/C=C\c3ccc(OC)c(OC)c3)n2C)n(CCC)c1=O` [Compound 65, (Z)-8-(3,4-Dimethoxystyryl)-7-methyl-1,3-dipropylxanthine], over 300 mg/kg.
As to `CCCn1c(=O)c2c(nc(/C=C/c3ccc(OC)c(OC)c3)n2CC)n(CCC)c1=O` [Compound 66, (E)-8-(3,4-Dimethoxystyryl)-7-ethyl-1,3-dipropylxanthine], the “MLD (minimum lethal dose)” value is over 300 mg/kg.
The same measure for `C#CCn1c(/C=C/c2ccc(OC)c(OC)c2)nc2c1c(=O)n(CCC)c(=O)n2CCC` [Compound 67, (E)-8-(3,4-Dimethoxystyryl)-7-propargyl-1,3-dipropylxanthine]: over 300 mg/kg.
